{"source": "patent US6110955A", "about": "“Metabolically stabilized oxyalkylene esters and uses thereof” (Beacon Laboratories, Inc., priority 1997, dated 2000)", "key": {"[1]": {"system": "human neuroblastoma cell lines", "assay": "Clonogenicity across the neuroblastoma cell lines (summary)", "type": "cell-based", "protocol": "(§1) Inhibition of cancer cell growth in agar culture--clonogenicity was tested using cell lines as follows:\n(§2) Cells were harvested, washed in complete media, and counted.\n(§3) After overnight culture, AB or α-methyl-4-(2-methylpropyl)-benzeneacetyloxymethyl butyrate was added at the indicated concentration. The control cells received media alone."}, "[2]": {"system": "β-globin disorders (β-thalassemia and sickle-cell anemia)", "details": "β-thalassemia and sickle-cell anemia patients; cited from earlier work"}, "NBAS-5": {"system": "NBAS-5", "assay": "Clonogenicity in soft agar (growth inhibition)", "type": "cell-based, human", "details": "Homo sapiens", "protocol": "as §1, §2, §3"}, "SK-N-SH": {"system": "SK-N-SH", "assay": "Clonogenicity in soft agar (growth inhibition)", "type": "cell-based, human", "details": "Homo sapiens, read-out: clones relative to media-treated control cultures", "protocol": "as §1, §2, §3"}, "NBL-S": {"system": "NBL-S", "assay": "Clonogenicity in soft agar (growth inhibition)", "type": "cell-based, human", "details": "Homo sapiens", "protocol": "as §1, §2, §3"}, "IMR-32": {"system": "IMR-32", "assay": "Clonogenicity in soft agar (growth inhibition)", "type": "cell-based, human", "details": "Homo sapiens, read-out: clones relative to media-treated control cultures", "protocol": "as §1, §2, §3"}, "MCF7": {"system": "MCF7", "assay": "Inhibition of cancer cell growth, sulforhodamine B (SRB) method", "type": "cell-based", "details": "Homo sapiens", "protocol": "(§4) Inhibition of cancer cell growth was measured by the sulforhodamine B (SRB) method as described by Monks et al., J. Nat. Canc. Inst., (1991), 83: 757-766, incorporated herein in its entirety. The SRB assay is recognized by the National Institute for Cancer (NCI) as a reliable screen for anticancer drugs and is used by the NCI for this purpose. […] (FIGS. 3A-3D)."}, "CFPAC": {"system": "CFPAC", "assay": "Inhibition of cancer cell growth, sulforhodamine B (SRB) method", "type": "cell-based", "details": "Homo sapiens", "protocol": "as §4"}, "LOX IMVI": {"system": "LOX IMVI", "assay": "Inhibition of cancer cell growth, sulforhodamine B (SRB) method", "type": "cell-based", "details": "Homo sapiens", "protocol": "as §4"}, "OVCAR-5": {"system": "OVCAR-5", "assay": "Inhibition of cancer cell growth, sulforhodamine B (SRB) method", "type": "cell-based", "details": "Homo sapiens", "protocol": "as §4"}}, "data": [{"smiles": "CCCC(=O)O", "note": "[AB, arginine butyrate, reference compound]", "values": [{"measurement": "inhibition of clonogenicity (in words)", "setting": "[1]", "value": "dose-dependent manner"}, {"measurement": "reported side effects", "setting": "[2]", "value": "hypokalemia, headache, nausea and vomiting"}, {"measurement": "IC50", "setting": "NBAS-5; NBAS-5", "value": 833, "unit": "µM"}, {"measurement": "activity at 100 µM", "setting": "NBAS-5; NBAS-5, 100 μM, read-out: clones relative to media-treated control cultures", "value": "85 ± 1", "unit": "%"}, {"measurement": "activity at 250 µM", "setting": "NBAS-5; NBAS-5, 250 μM, read-out: clones relative to media-treated control cultures", "value": "78 ± 2", "unit": "%"}, {"measurement": "activity at 500 µM", "setting": "NBAS-5; NBAS-5, 500 μM, read-out: clones relative to media-treated control cultures", "value": "68 ± 2", "unit": "%"}, {"measurement": "activity at 1000 µM", "setting": "NBAS-5; NBAS-5, 1000 μM, read-out: clones relative to media-treated control cultures", "value": 53, "unit": "%"}, {"measurement": "activity at 2000 µM", "setting": "NBAS-5; NBAS-5, 2000 μM, read-out: clones relative to media-treated control cultures", "value": 25, "unit": "%"}, {"measurement": "activity at 100 µM", "setting": "SK-N-SH; 100 μM", "value": "99 ± 1", "unit": "%"}, {"measurement": "activity at 250 µM", "setting": "SK-N-SH; 250 μM", "value": "81 ± 1", "unit": "%"}, {"measurement": "activity at 500 µM", "setting": "SK-N-SH; 500 μM", "value": "75 ± 9", "unit": "%"}, {"measurement": "activity at 1000 µM", "setting": "SK-N-SH; 1000 μM", "value": "54 ± 2", "unit": "%"}, {"measurement": "activity at 2000 µM", "setting": "SK-N-SH; 2000 μM", "value": "24 ± 1", "unit": "%"}, {"measurement": "IC50", "setting": "NBL-S", "value": 701, "unit": "µM"}, {"measurement": "IC90", "setting": "NBL-S", "value": 2000, "unit": "µM"}, {"measurement": "activity at 100 µM", "setting": "IMR-32; IMR-32, 100 μM", "value": 108, "unit": "%"}, {"measurement": "activity at 250 µM", "setting": "IMR-32; IMR-32, 250 μM", "value": 104, "unit": "%"}, {"measurement": "activity at 500 µM", "setting": "IMR-32; IMR-32, 500 μM", "value": "69 ± 7", "unit": "%"}, {"measurement": "activity at 1000 µM", "setting": "IMR-32; IMR-32, 1000 μM", "value": 49, "unit": "%"}, {"measurement": "activity at 2000 µM", "setting": "IMR-32; IMR-32, 2000 μM", "value": 21, "unit": "%"}, {"measurement": "inhibition at 31.25 pM", "setting": "MCF7; MCF7, dosage 0.03125 nM", "value": 0.3, "unit": "%"}, {"measurement": "inhibition at 62.5 pM", "setting": "MCF7; MCF7, dosage 0.06250 nM", "value": 0.2, "unit": "%"}, {"measurement": "inhibition at 0.000125 µM", "setting": "MCF7; MCF7, dosage 0.12500 nM", "value": 0, "unit": "%"}, {"measurement": "inhibition at 0.00025 µM", "setting": "MCF7; MCF7, dosage 0.25000 nM", "value": 0.1, "unit": "%"}, {"measurement": "inhibition at 0.0005 µM", "setting": "MCF7; MCF7, dosage 0.50000 nM", "value": 0, "unit": "%"}, {"measurement": "inhibition at 0.001 µM", "setting": "MCF7; MCF7, dosage 1.00000 nM", "value": 1.2, "unit": "%"}, {"measurement": "inhibition at 0.002 µM", "setting": "MCF7; MCF7, dosage 2.00000 nM", "value": 1.8, "unit": "%"}, {"measurement": "inhibition at 0.004 µM", "setting": "MCF7; MCF7, dosage 4.00000 nM", "value": 2.2, "unit": "%"}, {"measurement": "inhibition at 31.25 pM", "setting": "CFPAC; dosage 0.03125 nM", "value": 6.6, "unit": "%"}, {"measurement": "inhibition at 62.5 pM", "setting": "CFPAC; dosage 0.06250 nM", "value": 4.8, "unit": "%"}, {"measurement": "inhibition at 0.000125 µM", "setting": "CFPAC; dosage 0.12500 nM", "value": 11.3, "unit": "%"}, {"measurement": "inhibition at 0.00025 µM", "setting": "CFPAC; dosage 0.25000 nM", "value": 1, "unit": "%"}, {"measurement": "inhibition at 0.0005 µM", "setting": "CFPAC; dosage 0.50000 nM", "value": 1.5, "unit": "%"}, {"measurement": "inhibition at 0.001 µM", "setting": "CFPAC; dosage 1.00000 nM", "value": 4.7, "unit": "%"}, {"measurement": "inhibition at 0.002 µM", "setting": "CFPAC; dosage 2.00000 nM", "value": 12.8, "unit": "%"}, {"measurement": "inhibition at 0.004 µM", "setting": "CFPAC; dosage 4.00000 nM", "value": 16.6, "unit": "%"}, {"measurement": "inhibition at 31.25 pM", "setting": "LOX IMVI; dosage 0.03125 nM", "value": 0, "unit": "%"}, {"measurement": "inhibition at 62.5 pM", "setting": "LOX IMVI; dosage 0.06250 nM", "value": 1.4, "unit": "%"}, {"measurement": "inhibition at 0.000125 µM", "setting": "LOX IMVI; dosage 0.12500 nM", "value": 1.5, "unit": "%"}, {"measurement": "inhibition at 0.00025 µM", "setting": "LOX IMVI; dosage 0.25000 nM", "value": 3.1, "unit": "%"}, {"measurement": "inhibition at 0.0005 µM", "setting": "LOX IMVI; dosage 0.50000 nM", "value": 1.8, "unit": "%"}, {"measurement": "inhibition at 0.001 µM", "setting": "LOX IMVI; dosage 1.00000 nM", "value": 11.8, "unit": "%"}, {"measurement": "inhibition at 0.002 µM", "setting": "LOX IMVI; dosage 2.00000 nM", "value": 10.7, "unit": "%"}, {"measurement": "inhibition at 0.004 µM", "setting": "LOX IMVI; dosage 4.00000 nM", "value": 23.3, "unit": "%"}, {"measurement": "inhibition at 31.25 pM", "setting": "OVCAR-5; OVCAR-5, dosage 0.03125 nM", "value": 0, "unit": "%"}, {"measurement": "inhibition at 62.5 pM", "setting": "OVCAR-5; OVCAR-5, dosage 0.06250 nM", "value": 0.1, "unit": "%"}, {"measurement": "inhibition at 0.000125 µM", "setting": "OVCAR-5; OVCAR-5, dosage 0.12500 nM", "value": 0.5, "unit": "%"}, {"measurement": "inhibition at 0.00025 µM", "setting": "OVCAR-5; OVCAR-5, dosage 0.25000 nM", "value": 0.3, "unit": "%"}, {"measurement": "inhibition at 0.0005 µM", "setting": "OVCAR-5; OVCAR-5, dosage 0.50000 nM", "value": 1.3, "unit": "%"}, {"measurement": "inhibition at 0.001 µM", "setting": "OVCAR-5; OVCAR-5, dosage 1.00000 nM", "value": 2.5, "unit": "%"}, {"measurement": "inhibition at 0.002 µM", "setting": "OVCAR-5; OVCAR-5, dosage 2.00000 nM", "value": 6.6, "unit": "%"}, {"measurement": "inhibition at 0.004 µM", "setting": "OVCAR-5; OVCAR-5, dosage 4.00000 nM", "value": 29.3, "unit": "%"}]}]}
